From patent publication US10005824B2, “Selective PYY compounds and uses thereof” (Novo Nordisk A/S, priority 2015, dated 2018)

Assays:
human Y2 receptor = target: T1, human Y2 receptor (Homo sapiens, UniProt P49146); assay: Scintillation proximity assay (SPA) receptor binding, Y2
T1 construct: expressed in transfected cells; host or cells: CHO-K1 (membrane preparation)
T1 sequence (P49146 1-381): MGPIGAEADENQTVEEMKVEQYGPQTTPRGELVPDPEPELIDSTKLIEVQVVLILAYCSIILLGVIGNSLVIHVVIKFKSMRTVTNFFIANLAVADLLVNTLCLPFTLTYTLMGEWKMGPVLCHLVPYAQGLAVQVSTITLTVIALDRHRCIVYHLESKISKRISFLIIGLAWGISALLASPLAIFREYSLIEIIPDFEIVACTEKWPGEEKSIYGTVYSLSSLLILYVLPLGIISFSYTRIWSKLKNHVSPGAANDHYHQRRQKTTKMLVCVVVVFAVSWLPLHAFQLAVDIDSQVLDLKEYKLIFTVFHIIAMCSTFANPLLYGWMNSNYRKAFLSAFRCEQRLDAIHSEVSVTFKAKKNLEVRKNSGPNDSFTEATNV
Description: (§1) The purpose of this example is to test the in vitro binding of the PYY compounds to the Y1, Y2, Y4 and Y5 receptor subtypes, respectively. The receptor binding affinity is a measure of affinity of a compound for the human Y1, Y2, Y4 and Y5 receptor subtypes, respectively.
(§2) Scintillation Proximity Assay (SPA)
(§3) NPY-Receptor Expressing Cell Lines.
All cells were cultured at +37° C. in a humidified atmosphere with 5% CO2. […] CHO-K1 cells stably expressing the human Y2 receptor (P49146, NPY2R_HUMAN, Uniprot) were cultured in DMEM F-12 with 10% FBS, 1% P/S, 150 μg/ml Hygromycin B and 10 μg/ml Puromycin antibiotic. CHO-K1 cells stably expressing the human Y4 receptor (P50391, NPY4R_HUMAN, Uniprot) were cultured in DMEM F-12 with 10% FBS, 1% P/S, 10 μg/ml Puromycin. HEK-293 cells stably expressing the human Y5 receptor (Q15761, NPY5R_HUMAN, Uniprot) were cultured in DMEM F-12 medium containing 10% FBS, 1% Penicillin-Streptomycin, 250 μg/ml G418 and 1 μg/ml puromycin. […]
(§4) Plates were sealed and incubated at +25° C. for 2 hours in a plate shaker set at 400 rpm and thereafter centrifuged at 1500 rpm for 10 minutes prior to reading of luminescence on a microplate scintillation and luminescence counter. […] Displacement of radioligand was measured as reduction in luminescence and IC50 values were calculated by nonlinear regression analysis of sigmoidal dose-response curves.

human Y1 receptor = target: T2, human Y1 receptor (Homo sapiens, UniProt P25929); assay: Scintillation proximity assay (SPA) receptor binding, Y1
T2 construct: expressed in transfected cells; host or cells: BHK-21 clone 6-482-8, IPTG-induced (membrane preparation)
T2 sequence (P25929 1-384): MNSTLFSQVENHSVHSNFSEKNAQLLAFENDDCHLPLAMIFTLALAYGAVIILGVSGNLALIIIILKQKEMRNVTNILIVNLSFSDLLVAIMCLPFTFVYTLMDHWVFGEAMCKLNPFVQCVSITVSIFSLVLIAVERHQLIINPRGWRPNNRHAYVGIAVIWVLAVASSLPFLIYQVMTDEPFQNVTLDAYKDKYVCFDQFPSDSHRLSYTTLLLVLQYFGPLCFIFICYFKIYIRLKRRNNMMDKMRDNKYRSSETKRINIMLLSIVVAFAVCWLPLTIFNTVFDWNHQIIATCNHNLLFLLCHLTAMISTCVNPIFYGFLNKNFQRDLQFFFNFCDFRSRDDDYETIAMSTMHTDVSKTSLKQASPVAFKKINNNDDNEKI
Description: as §1, §2, §3
(§5) All cells were cultured at +37° C. in a humidified atmosphere with 5% CO2. […] CHO-K1 cells stably expressing the human Y2 receptor (P49146, NPY2R_HUMAN, Uniprot) were cultured in DMEM F-12 with 10% FBS, 1% P/S, 150 μg/ml Hygromycin B and 10 μg/ml Puromycin antibiotic. CHO-K1 cells stably expressing the human Y4 receptor (P50391, NPY4R_HUMAN, Uniprot) were cultured in DMEM F-12 with 10% FBS, 1% P/S, 10 μg/ml Puromycin. HEK-293 cells stably expressing the human Y5 receptor (Q15761, NPY5R_HUMAN, Uniprot) were cultured in DMEM F-12 medium containing 10% FBS, 1% Penicillin-Streptomycin, 250 μg/ml G418 and 1 μg/ml puromycin.
(§6) The homogenate was centrifuged at 35000 g using an ultracentrifuge for 10 minutes at +4° C. and the supernatant was discarded and fresh homogenization buffer added. Homogenization of the pellet was repeated a total of three times.
(§7) Human Y receptor SPA binding assay were performed in white 96-well plates in a total volume of 200 μl per well.
as §4

[1] = Pharmacokinetic study in minipigs after i.v. administration; assay type: in vivo; settings: female, Göttingen, minipig, plasma, iv, 15 nmol/kg; read-out: Half-life (t½) (converted)
Excerpt: By terminal half-life is generally meant the period of time it takes to halve a certain plasma concentration, measured after the initial distribution phase.
After minimum 2 weeks of acclimatization two permanent central venous catheters were implemented in vena cava caudalis in each animal. After surgery the animals were in their normal individual pens during the pharmacokinetic experiments.
On day 1 the catheters are coupled to extension tubes, which will be removed at the end of day 1. […] Samples were kept on wet ice until centrifugation (10 min, 4° C., 1942 g).
Plasma concentration-time profiles was analysed by a non-compartmental pharmacokinetics analysis using Phoenix (Pharsight Inc., Mountain View, Calif., USA). Calculations were performed using individual concentration-time values from each animal.

human Y4 receptor = target: T3, human Y4 receptor (Homo sapiens, UniProt P50391); assay: Scintillation proximity assay (SPA) receptor binding, Y4; settings: Y4 Ki, membranes of CHO-K1 cells, [125I]-Pancreatic Polypeptide
T3 construct: expressed in transfected cells; host or cells: CHO-K1 (membrane preparation)
T3 sequence (P50391 whole entry): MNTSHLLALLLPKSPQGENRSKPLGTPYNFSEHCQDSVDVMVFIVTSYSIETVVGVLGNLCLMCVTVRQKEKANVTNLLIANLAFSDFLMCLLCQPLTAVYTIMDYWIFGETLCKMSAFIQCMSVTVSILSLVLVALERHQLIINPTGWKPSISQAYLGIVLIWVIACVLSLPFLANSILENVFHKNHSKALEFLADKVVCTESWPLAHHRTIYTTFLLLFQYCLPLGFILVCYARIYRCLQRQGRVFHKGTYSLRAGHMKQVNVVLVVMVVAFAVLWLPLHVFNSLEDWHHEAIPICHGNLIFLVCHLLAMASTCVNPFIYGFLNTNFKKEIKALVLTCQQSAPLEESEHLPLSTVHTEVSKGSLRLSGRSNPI
Description: as §1, §2, §3, §5, §6, §7, §4

Row | Structure (SMILES) | Ki (human Y2 receptor) | Ki (human Y1 receptor) | half-life [1] | Ki (human Y4 receptor)
1 | CC(C)CC(=O)N[C@@H](CCCNC(=N)N)C(=O)N1CCC[C@H]1C(=O)N[C@@H](CCC(=O)O)C(=O)N[C@@H](CCCCNC(=O)CC[C@H](NC(=O)CCCCCCCCCCCCCCCCC(=O)O)C(=O)O)C(=O)N1CCC[C@H]1C(=O)N[C@H](C(=O)N[C@@H](CCC(=O)O)C(=O)N[C@@H](CC(=O)O)C(=O)N[C@@H](C)C(=O)N[C@@H](CO)C(=O)N1CCC[C@H]1C(=O)N[C@@H](CCC(=O)O)C(=O)N[C@@H](CCC(=O)O)C(=O)N[C@@H](CC(C)C)C(=O)N[C@@H](CCC(N)=O)C(=O)N[C@@H](CCCNC(=N)N)C(=O)N[C@@H](Cc1ccc(O)cc1)C(=O)N[C@@H](Cc1ccc(O)cc1)C(=O)N[C@H](C(=O)N[C@@H](CO)C(=O)N[C@@H](CC(C)C)C(=O)N[C@@H](CCCNC(=N)N)C(=O)N[C@@H](Cc1c[nH]cn1)C(=O)N[C@@H](Cc1ccc(O)cc1)C(=O)N[C@@H](Cc1ccc(O)cc1)C(=O)N[C@@H](CC(N)=O)C(=O)N[C@@H](Cc1c[nH]c2ccccc12)C(=O)N[C@@H](CC(C)C)C(=O)N[C@H](C(=O)N[C@@H](CCCNC(=N)N)C(=O)N[C@@H](CCC(N)=O)C(=O)N[C@@H](CCCNC(=N)N)C(=O)N[C@@H](Cc1ccc(O)cc1)C(N)=O)[C@@H](C)O)C(C)C)[C@@H](C)O [Compound 44, N{alpha-4}-(3-Methylbutanoyl)-N{Epsilon-7}-[(4S)-4-carboxy-4-(17-carboxy-heptadecanoylamino)butanoyl]-[Arg4,Lys7,Thr9,Gln18,Val22,Tyr28,Trp30,Leu31]hPYY(4-36)] | 0.00033 µM | > 10 µM |  | 
2 | CC(C)CC(=O)N[C@@H](CCCNC(=N)N)C(=O)N1CCC[C@H]1C(=O)N[C@@H](CCC(=O)O)C(=O)N[C@@H](C)C(=O)N1CCC[C@H]1C(=O)NCC(=O)N[C@@H](CCCCNC(=O)CC[C@H](NC(=O)COCCOCCNC(=O)CC[C@H](NC(=O)CCCCCCCCCCCCCCCCC(=O)O)C(=O)O)C(=O)O)C(=O)N[C@@H](CC(=O)O)C(=O)N[C@@H](C)C(=O)N[C@@H](CO)C(=O)N1CCC[C@H]1C(=O)N[C@@H](CCC(=O)O)C(=O)N[C@@H](CCC(=O)O)C(=O)N[C@@H](CC(C)C)C(=O)N[C@@H](CCC(N)=O)C(=O)N[C@@H](CCCNC(=N)N)C(=O)N[C@@H](Cc1ccc(O)cc1)C(=O)N[C@@H](Cc1ccc(O)cc1)C(=O)N[C@@H](CCC(=O)O)C(=O)N[C@@H](CO)C(=O)N[C@@H](CC(C)C)C(=O)N[C@@H](CCCNC(=N)N)C(=O)N[C@@H](Cc1c[nH]cn1)C(=O)N[C@@H](Cc1ccc(O)cc1)C(=O)N[C@@H](Cc1ccc(O)cc1)C(=O)N[C@@H](CC(N)=O)C(=O)N[C@@H](Cc1c[nH]c2ccccc12)C(=O)N[C@@H](CC(C)C)C(=O)N[C@H](C(=O)N[C@@H](CCCNC(=N)N)C(=O)N[C@@H](CCC(N)=O)C(=O)N[C@@H](CCCNC(=N)N)C(=O)N[C@@H](Cc1ccc(O)cc1)C(N)=O)[C@@H](C)O [Compound 50, N{alpha-4}-(3-Methylbutanoyl)-N{Epsilon-10}-[(4S)-4-carboxy-4-[[2-[2-[2-[[(4S)-4-carboxy-4-(17-carboxyheptadecanoylamino)butanoyl]amino]ethoxy]ethoxy]-acetyl]amino]butanoyl]-[Arg4,Lys10,Gln18,Glu22,Tyr28,Trp30,Leu31]-PYY(4-36)] |  | > 10 µM | 94 h | > 10 µM
3 | CC(C)CC(=O)N[C@@H](CCCNC(=N)N)C(=O)N1CCC[C@H]1C(=O)N[C@@H](CCC(=O)O)C(=O)N[C@@H](C)C(=O)N1CCC[C@H]1C(=O)N1CCC[C@H]1C(=O)N[C@@H](CCCCNC(=O)CC[C@H](NC(=O)COCCOCCNC(=O)CC[C@H](NC(=O)CCCCCCCCCCCCCCCS(=O)(=O)O)C(=O)O)C(=O)O)C(=O)N[C@@H](CC(=O)O)C(=O)N[C@@H](C)C(=O)N[C@@H](CO)C(=O)N1CCC[C@H]1C(=O)N[C@@H](CCC(=O)O)C(=O)N[C@@H](CCC(=O)O)C(=O)N[C@@H](CC(C)C)C(=O)N[C@@H](CCC(N)=O)C(=O)N[C@@H](CCCNC(=N)N)C(=O)N[C@@H](Cc1ccc(O)cc1)C(=O)N[C@@H](Cc1ccc(O)cc1)C(=O)N[C@@H](C)C(=O)N[C@@H](CO)C(=O)N[C@@H](CC(C)C)C(=O)N[C@@H](CCCNC(=N)N)C(=O)N[C@@H](Cc1c[nH]cn1)C(=O)N[C@@H](Cc1ccc(O)cc1)C(=O)N[C@@H](Cc1ccc(O)cc1)C(=O)N[C@@H](CC(N)=O)C(=O)N[C@@H](Cc1c[nH]c2ccccc12)C(=O)N[C@@H](CC(C)C)C(=O)N[C@H](C(=O)N[C@@H](CCCNC(=N)N)C(=O)N[C@@H](CCC(N)=O)C(=O)N[C@@H](CCCNC(=N)N)C(=O)N[C@@H](Cc1ccc(O)cc1)C(N)=O)[C@@H](C)O [Compound 69, N{alpha-4}-(3-Methylbutanoyl)-N{Epsilon-10}-[(4S)-4-carboxy-4-[[2-[2-[2-[[(4S)-4-carboxy-4-(16-sulfohexadecanoylamino)butanoyl]amino]ethoxy]-ethoxy]acetyl]amino]butanoyl]-[Arg4,Pro9,Lys10,Gln18,Tyr28,Trp30,Leu31]-PYY-(4-36)] |  | > 10 µM | 64 h | 5.69 µM
